Where no end group is shown, it is not given here.
Assay: MTD and LD50, single intraperitoneal administration
Assay type: in vivo, mice
Conditions: for No. of Survivors Day 1 / No. of Survivors Day 2 / No. of Survivors Day 3 / No. of Survivors Day 4 / No. of Survivors Day 5 / No. of Survivors Day 6 / No. of Survivors Day 7 / No. of Survivors Day 8 / No. of Survivors Day 11: 4 injected
Method: Determinations of a maximal tolerated dose (MTD) of a single intravenous (i.v.) administration or intraperitoneal (i.p.) administration of MSI-344 or MSI-1857 in 100 CD-1®BR mice were done. The MTD of a single intravenous (i.v.) administration was 10 mg/kg for MSI-344 and 60 mg/kg for MSI-1857. The MTD of a single intraperitoneal (i.p.) administration was less than 20 mg/kg for MSI-344 and between 50 and 100 mg/kg for MSI-1857.
To determine estimates of MTDs and LD50s of MSI-344 and MSI-1857 administered intravenously or intraperitoneally as a single bolus in mice.
A 5 mg/mL solution of MSI-344 was made in saline (0.9% sodium chloride injection USP, Abbott, North Chicago, Ill.) corrected for peptide content. Solutions of MSI-344 at concentrations of 4, 3, 2, 1.5, 1, and 0.5 mg/mL were made by diluting the 5 mg/mL solution using saline as diluent. (Errors were made in solution preparation of the 4, 3, and 2 mg/mL solutions and results from groups with animals doses with these solutions, i.e. groups 12, 13, and 14, were eliminated from study analysis). A 20 mg/mL solution of MSI-1857 was made in saline. Solutions of MSI-1857 at concentrations of 15, 10, 8, 6, and 5 mg/mL were made by diluting the 20 mg/mL solution using saline as diluent.
Another 5 mg/mL solution of MSI-344 was made in saline corrected for peptide content. Solutions of 4, 3 and 2 mg/mL were made by diluting the 5 mg/mL solution using saline as diluent. A 15 mg/mL solution of MSI-1857 in saline was made corrected for peptide content. A 10 mg/mL solution was made by diluting the 15 mg/mL solution with saline.
Mice (four mice per dose group) were intravenously or intraperitoneally administered a single bolus of MSI-344 or MSI-1857 using an injection volume of 10 mL/kg of the appropriate solution concentration. If the first two mice in a group died immediately (within 10 secs) after administration of a dose then no other mice injected with this dose of this compound (for ethical reasons). Survival was monitored daily for at least eight days post-administration. Study designs are presented in Tables IX and X. Toxicity Study # 262 was a supplement to Toxicity Study #261.

[1] = Tox Study 262 group 2, 50 mg/kg IP
[2] = Tox Study 262 group 3, 40 mg/kg IP
[3] = Tox Study 262 group 4, 30 mg/kg IP
[4] = Tox Study 262 group 5, 20 mg/kg IP
[5] = Tox Study #261 group 11, 50 mg/kg IP
[6] = Tox Study #261 group 12, dose TBD (solution error, eliminated from analysis) IP
[7] = Tox Study #261 group 13, dose TBD (solution error, eliminated from analysis) IP
[8] = Tox Study #261 group 14, dose TBD (solution error, eliminated from analysis) IP

Sequence: GIGKFLKKAKKFGKAFVKILKK [MSI-344]
- No. of Survivors Day 1 [1]: 0
- No. of Survivors Day 2 [1]: 0
- No. of Survivors Day 3 [1]: 0
- No. of Survivors Day 4 [1]: 0
- No. of Survivors Day 5 [1]: 0
- No. of Survivors Day 6 [1]: 0
- No. of Survivors Day 7 [1]: 0
- No. of Survivors Day 8 [1]: 0
- No. of Survivors Day 11 [1]: 0
- No. of Survivors Day 1 [2]: 0
- No. of Survivors Day 2 [2]: 0
- No. of Survivors Day 3 [2]: 0
- No. of Survivors Day 4 [2]: 0
- No. of Survivors Day 5 [2]: 0
- No. of Survivors Day 6 [2]: 0
- No. of Survivors Day 7 [2]: 0
- No. of Survivors Day 8 [2]: 0
- No. of Survivors Day 11 [2]: 0
- No. of Survivors Day 1 [3]: 0
- No. of Survivors Day 2 [3]: 0
- No. of Survivors Day 3 [3]: 0
- No. of Survivors Day 4 [3]: 0
- No. of Survivors Day 5 [3]: 0
- No. of Survivors Day 6 [3]: 0
- No. of Survivors Day 7 [3]: 0
- No. of Survivors Day 8 [3]: 0
- No. of Survivors Day 11 [3]: 0
- No. of Survivors Day 1 [4]: 3
- No. of Survivors Day 2 [4]: 3
- No. of Survivors Day 3 [4]: 3
- No. of Survivors Day 4 [4]: 3
- No. of Survivors Day 5 [4]: 3
- No. of Survivors Day 6 [4]: 3
- No. of Survivors Day 7 [4]: 3
- No. of Survivors Day 8 [4]: 3
- No. of Survivors Day 11 [4]: 3
- No. of Survivors Day 1 [5]: 0
- No. of Survivors Day 2 [5]: 0
- No. of Survivors Day 3 [5]: 0
- No. of Survivors Day 4 [5]: 0
- No. of Survivors Day 5 [5]: 0
- No. of Survivors Day 6 [5]: 0
- No. of Survivors Day 7 [5]: 0
- No. of Survivors Day 8 [5]: 0
- No. of Survivors Day 1 [6]: 2
- No. of Survivors Day 2 [6]: 1
- No. of Survivors Day 3 [6]: 1
- No. of Survivors Day 4 [6]: 1
- No. of Survivors Day 5 [6]: 1
- No. of Survivors Day 6 [6]: 1
- No. of Survivors Day 7 [6]: 1
- No. of Survivors Day 8 [6]: 1
- No. of Survivors Day 1 [7]: 0
- No. of Survivors Day 2 [7]: 0
- No. of Survivors Day 3 [7]: 0
- No. of Survivors Day 4 [7]: 0
- No. of Survivors Day 5 [7]: 0
- No. of Survivors Day 6 [7]: 0
- No. of Survivors Day 7 [7]: 0
- No. of Survivors Day 8 [7]: 0
- No. of Survivors Day 1 [8]: 2
- No. of Survivors Day 2 [8]: 1
- No. of Survivors Day 3 [8]: 1
- No. of Survivors Day 4 [8]: 1
- No. of Survivors Day 5 [8]: 1
- No. of Survivors Day 6 [8]: 1
- No. of Survivors Day 7 [8]: 1
- No. of Survivors Day 8 [8]: 1
- LD50 (mouse, in vivo, ip, CD-1 mice, estimated from dose response curves): 23.5 mg/kg
- MTD (mouse, in vivo, ip, CD-1 mice, read-out: MTD of a single intraperitoneal (i.p.) administration): < 20 mg/kg
